Tests used:
Assay type in all cases: in vivo
slender amaranth (Am) [1] = assay: Test Example 11: crop plant selectivity by upland field foliage treatment (corn), herbicidal effects; design: scale not given here
Procedure, shortened: (§1)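 Corn and the weed species were sown together in sand-filled pots and grown in a greenhouse for 2 weeks before foliar treatment. Herbicidal effect was scored on day 14 after treatment against a graded standard scale, with corn phytotoxicity scored alongside.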

pale smartweed (Po) [2] = assay: as above; design: scale not given here
Procedure, shortened: as §1

Digitaria ciliaris (Di) = assay: Test Example 2: herbicidal effects by upland field soil treatment; settings: 100 g of the active ingredient per 10 ares;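 note: grade of growth control; 5 = at least 90%; 4 = 70 to 90%; 3 = 50 to 70%; 2 = 30 to 50%; 1 = 10 to 30%; 0 = under 10%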
Text: (§2) (Test on Herbicidal Effects by Upland Field Soil Treatment)

barnyardgrass (Ec) = assay: as above; settings: 100 g of the active ingredient per 10 ares;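 note: grade of growth control; 5 = at least 90%; 4 = 70 to 90%; 3 = 50 to 70%; 2 = 30 to 50%; 1 = 10 to 30%; 0 = under 10%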
Text: as §2

slender amaranth (Am) [3] = assay: Test Example 7: crop plant selectivity by upland field soil treatment (corn), herbicidal effects; design: scale not given here; settings: 21st day after application
Procedure, shortened: (§3)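 Greenhouse pot test: scores for herbicidal effect and corn phytotoxicity were given 21 days after soil treatment, against set rating standards. Crop and weed species (foxtail, smartweed, amaranth, lambsquarters, China jute) were sown together in sand and covered with soil beforehand.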

China jute (Ab) = assay: as above; design: scale not given here; settings: 21st day after application
Procedure, shortened: as §3

green foxtail (Se) = assay: as above; design: scale not given here; settings: 21st day after application
Procedure, shortened: as §3

pale smartweed (Po) [4] = assay: as above; design: scale not given here; settings: 21st day after application
Procedure, shortened: as §3

[5] = test system: common lambsquarters (Ch); assay: as above; design: scale not given here; settings: 21st day after application
Procedure, shortened: as §3

[6] = slender amaranth, foliage treatment, dose 1.6 g ai/10a, evaluated on 14th day after treatment, index per Table 47
[7] = pale smartweed, foliage treatment, dose 1.6 g ai/10a, evaluated on 14th day after treatment, index per Table 47
[8] = evaluated on the 21st day after application
[9] = 21st day after the application, index 0-5 of Table 47
[10] = upland field foliage treatment (corn test), dose 1.6 g ai/10a, 14th day after treatment
[11] = upland field foliage treatment (corn test), dose 0.1 g ai/10a, 14th day after treatment

Compound | Herbicidal effects Am (slender amaranth (Am) [1]; [6]) | Herbicidal effects Po (pale smartweed (Po) [2]; [7]) | Herbicidal effects Di (Digitaria ciliaris (Di); [8]) | Herbicidal effects Ec (barnyardgrass (Ec); [8]) | Herbicidal effects Di (Digitaria ciliaris (Di); [9]) | Herbicidal effects Ec (barnyardgrass (Ec); [9]) | Herbicidal effects Am (slender amaranth (Am) [3]; dose 1.6 g ai/10a) | Herbicidal effects Ab (China jute (Ab); dose 1.6 g ai/10a) | Herbicidal effects Se (green foxtail (Se); dose 1.6 g ai/10a) | Herbicidal effects Po (pale smartweed (Po) [4]; dose 1.6 g ai/10a) | Herbicidal effects Ch ([5]; dose 1.6 g ai/10a) | Herbicidal effects Am (slender amaranth (Am) [1]; [10]) | Herbicidal effects Po (pale smartweed (Po) [2]; [10]) | Herbicidal effects Am (slender amaranth (Am) [3]; dose 6.3 g ai/10a) | Herbicidal effects Ab (China jute (Ab); dose 6.3 g ai/10a) | Herbicidal effects Se (green foxtail (Se); dose 6.3 g ai/10a) | Herbicidal effects Po (pale smartweed (Po) [4]; dose 6.3 g ai/10a) | Herbicidal effects Ch ([5]; dose 6.3 g ai/10a) | Herbicidal effects Am (slender amaranth (Am) [1]; [11]) | Herbicidal effects Po (pale smartweed (Po) [2]; [11])
C#CC(C)Oc1cc(-c2cn(C)c(C(F)(F)F)cc2=O)c(F)cc1Cl (racemic) [Compound 6-10] | 5 | 4 | 5 | 5 |  |  |  |  |  |  |  |  |  |  |  |  |  |  |  | 
COc1cc(-c2ccc(C(F)(F)F)n(C)c2=O)c(F)cc1Cl [1-15] |  |  |  |  | 5 | 5 | 5 | 5 | 5 | 5 | 5 |  |  |  |  |  |  |  |  | 
C=CCOc1cc(-c2ccc(C(F)(F)F)n(C)c2=O)c(F)cc1Cl [1-16] |  |  |  |  | 5 | 5 | 5 | 5 | 5 | 5 | 5 | 5 | 5 | 5 | 5 | 5 | 5 | 5 |  | 
C#CC(C)Oc1cc(-c2ccc(C(F)(F)F)n(C)c2=O)c(F)cc1Cl (stereo not drawn) [1-17] |  |  |  |  | 5 | 5 | 5 | 5 | 5 | 5 | 5 |  |  | 5 | 4 | 5 | 5 | 5 |  | 
C#CCOc1cc(-c2ccc(C(F)(F)F)n(C)c2=O)c(F)cc1Cl [1-18] |  |  |  |  | 5 | 5 | 5 | 5 | 5 | 5 | 5 | 5 | 5 | 5 | 5 | 5 | 5 | 5 |  | 
Cn1c(C(F)(F)F)ccc(-c2cc(OCC#N)c(Cl)cc2F)c1=O [1-25] |  |  |  |  | 5 | 5 |  |  |  |  |  | 5 | 5 | 5 | 5 | 5 | 5 | 5 |  | 
C#CCOc1cc(-c2ccc(C(F)(F)F)n(C)c2=O)c(Cl)cc1Cl [1-30] |  |  |  |  | 5 | 5 | 5 | 5 | 5 | 5 | 5 | 5 | 5 | 5 | 5 | 5 | 5 | 5 |  | 
CC(C)Sc1cc(-c2ccc(C(F)(F)F)n(C)c2=O)c(F)cc1Cl [1-43] |  |  |  |  | 5 | 5 |  |  |  |  |  |  |  | 5 | 4 | 5 | 5 | 5 |  | 
C#CCSc1cc(-c2ccc(C(F)(F)F)n(C)c2=O)c(F)cc1Cl [1-44] |  |  |  |  | 5 | 5 |  |  |  |  |  |  |  | 5 | 5 | 5 | 5 | 5 |  | 
CCOC(=O)c1cc(-c2ccc(C(F)(F)F)n(C)c2=O)c(F)cc1Cl [1-65] |  |  |  |  | 5 | 5 | 5 | 5 | 5 | 5 | 5 | 5 | 5 | 5 | 5 | 5 | 5 | 5 |  | 
Cc1cc(-c2ccc(C(F)(F)F)n(C)c2=O)c(F)cc1Cl [1-90] |  |  |  |  | 5 | 5 | 5 | 5 | 5 | 5 | 5 |  |  | 5 | 5 | 5 | 5 | 5 |  | 
COCSc1cc(-c2ccc(C(F)(F)F)n(C)c2=O)c(F)cc1Cl [1-91] |  |  |  |  | 5 | 5 | 5 | 5 | 5 | 5 | 5 |  |  | 5 | 5 | 5 | 5 | 5 |  | 
Cn1c(C(F)(F)F)ccc(-c2cc(Cl)c(Cl)cc2F)c1=O [1-136] |  |  |  |  | 5 | 5 | 5 | 5 | 5 | 5 | 5 |  |  |  |  |  |  |  |  | 
Cn1c(C(F)(F)F)ccc(-c2cc(OCC(F)(F)F)c(Cl)cc2F)c1=O [1-155] |  |  |  |  | 5 | 5 | 5 | 5 | 5 | 5 | 5 |  |  | 5 | 5 | 5 | 5 | 5 |  | 
Cn1c(C(F)(F)F)ccc(-c2cc(OCC3CC3)c(Cl)cc2F)c1=O [1-160] |  |  |  |  | 5 | 5 |  |  |  |  |  |  |  | 5 | 5 | 5 | 5 | 5 |  | 
Cn1c(C(F)(F)F)ccc(-c2cc(OCCCl)c(Cl)cc2F)c1=O [1-171] |  |  | 5 | 5 |  |  |  |  |  |  |  | 5 | 5 | 5 | 5 | 5 | 5 | 5 |  | 
C#CCOc1cc(-c2ccc(C(F)(F)F)n(N)c2=O)c(F)cc1Cl [1-178] |  |  | 5 | 5 |  |  | 5 | 5 | 5 | 5 | 5 | 5 | 5 |  |  |  |  |  |  | 
COc1cc(-c2ccc(C(F)(F)F)n(N)c2=O)c(F)cc1Cl [1-179] |  |  | 5 | 5 |  |  |  |  |  |  |  | 5 | 5 | 5 | 5 | 5 | 5 | 5 |  | 
CCOCOc1cc(-c2ccc(C(F)(F)F)n(C)c2=O)c(F)cc1Cl [1-181] |  |  | 5 | 5 |  |  |  |  |  |  |  | 5 | 5 |  |  |  |  |  |  | 
C#CC(O)c1cc(-c2ccc(C(F)(F)F)n(C)c2=O)c(F)cc1Cl (stereo not drawn) [Compound 1-202] |  |  | 5 | 5 |  |  | 5 | 5 | 5 | 5 | 5 |  |  |  |  |  |  |  |  | 
C=CCN1C(=O)COc2cc(F)c(-c3ccc(C(F)(F)F)n(C)c3=O)cc21 [Compound 2-7] |  |  | 5 | 5 |  |  |  |  |  |  |  |  |  |  |  |  |  |  |  | 
Cc1cc2c(-c3ccc(C(F)(F)F)n(C)c3=O)c(F)cc(Cl)c2o1 [Compound 4-1] |  |  | 5 | 5 |  |  | 5 | 5 | 5 | 5 | 5 |  |  | 5 | 5 | 5 | 5 | 5 |  | 
CCc1cc2c(-c3ccc(C(F)(F)F)n(C)c3=O)c(F)cc(Cl)c2o1 [Compound 4-2] |  |  | 5 | 5 |  |  | 5 | 5 | 5 | 5 | 5 |  |  | 5 | 5 | 5 | 5 | 5 |  | 
C#CCN1C(=O)COc2cc(F)c(-c3cn(C)c(C(F)(F)F)cc3=O)cc21 [Compound 7-1] | 5 | 5 | 5 | 5 |  |  |  |  |  |  |  |  |  |  |  |  |  |  |  | 
C#CCN1C(=O)COc2cc(F)c(-c3ccc(C(F)(F)F)n(C)c3=O)cc21 [Compound No. 2-1, 3-[7-fluoro-2,3-dihydro-4-(2-propynyl)-1,4-benzoxazin-3-on-6-yl]-1-methyl-6-trifluoromethyl-2(1H)-pyridone] |  |  | 5 | 5 |  |  |  |  |  |  |  |  |  |  |  |  |  |  | 5 | 5
C#CCn1c(=O)sc2cc(F)c(-c3ccc(C(F)(F)F)n(C)c3=O)cc21 [Compound No. 3-1, 3-[6-fluoro-3-(2-propynyl)-benzothiazolin-2-on-5-yl]-1-methyl-6-trifluoromethyl-2(1H)-pyridone] |  |  | 5 | 5 |  |  | 5 | 5 | 5 | 5 | 5 |  |  | 5 | 5 | 5 | 5 | 5 |  | 
Cn1cc(-c2cc(Oc3ccccc3)c(Cl)cc2F)c(=O)cc1C(F)(F)F [Compound No. 6-19, 5-(4-chloro-2-fluoro-5-phenoxyphenyl)-1-methyl-2-trifluoromethyl-4(1H)-pyridone] |  |  | 5 | 5 |  |  |  |  |  |  |  |  |  |  |  |  |  |  |  | 
Cc1cc2c(-c3cn(C)c(C(F)(F)F)cc3=O)c(F)cc(Cl)c2o1 [Compound No. 9-1, 5-(7-chloro-5-fluoro-2-methylbenzofuran-4-yl)-1-methyl-2-trifluoromethyl-4(1H)-pyridone] |  |  | 5 | 5 |  |  |  |  |  |  |  |  |  |  |  |  |  |  |  | 

Reference: patent US6472348B1, “Pyridone derivatives and herbicides” (Kumiai Chemical Industry Co., Ltd., priority 1996, dated 2002)
